Source: patent publication US5580953A, “Amylin antagonist peptides and uses therefor” (Amylin Pharmaceuticals, Inc., priority 1991, dated 1996)
No end group written: not given here.

How the values were obtained:
[1] = test system: insulin-stimulated glycogen synthesis in soleus muscle; test: rat soleus muscle assay; assay type: cell-based; details: for amylin agonist activity as measured by the soleus muscle assay: inhibition of insulin-stimulated glycogen synthesis; for amylin antagonist activity in the soleus muscle assay: resumption of insulin-stimulated glycogen synthesis in the presence of 100 nM rat amylin
Excerpt: Several assays have been developed to measure amylin activity and to evaluate new compounds. A receptor binding assay as described herein may be used to screen for or to identify compounds which bind to amylin receptors and which may, therefore, be candidate amylin agonists and antagonists. The rat soleus muscle assay may be used as a secondary procedure to screen for or to evaluate and differentiate between amylin agonists and amylin antagonists. In the soleus muscle assay, amylin and amylin agonists inhibit insulin-stimulated glycogenesis. Amylin antagonists counteract this amylin inhibition which results in the recovery of insulin-stimulated glycogenesis.
Assays of biological activity of amylin preparations in the soleus muscle are performed using previously described methods (Leighton, B. and Cooper, G. J. S. (1988) Nature 335: 632-635; Cooper, G. J. S., Leighton, B., Dimitriadis, G. D., Parry-Billings, M., Kowalchuk, J. M., Howland, K., Rothbard, J. B., Willis, A. C. and Reid, K. B. M. (1988) Proc. Natl. Acad. Sci. USA 85: 7763-7766.) In summary, amylin agonist activity is assessed by measuring the inhibition of insulin-stimulated glycogen synthesis in soleus muscle in response to an amylin agonist. Amylin antagonist activity is assessed by measuring the resumption of insulin-stimulated glycogen synthesis in the presence of 100 nM rat amylin and an amylin antagonist. Concentrations of peptide dissolved in carrier-free buffers are determined by quantitative amino acid analysis, as described therein. The ability of compounds to act as antagonists in this assay is determined by measuring IC50 values. Standard errors are determined by fitting of sigmoidal dose response curves using a four parameter logistic equation (De Lean, A., Munson, P. J., Guardabasso, V. and Rodbard, D. (1988) ALLFIT, Version 2.7, National Institute of Child Health and Human Development, N.I.H. Bethesda, Md., 1 diskette).

[2] = test system: insulin resistance caused by administered amylin; test: infusion into rats, reversal of amylin-induced insulin resistance; assay type: in vivo; details: infusions into rats
Excerpt: A number of amylin antagonists have been characterized using these biological assays. The N-terminally deleted peptides ^8-37 Peptide A, ^8-37 Peptide B and ^8-32 Peptide C, were all found to compete with amylin in the receptor binding assay. […] ID. NO. 195]; ^9-37 Peptide B [SEQ. ID. NO. 27]; ^11-37 Peptide B [SEQ. ID. NO. 29]; ^18-37 Peptide B [SEQ. ID. NO. 36]; ^26 Asp^27 Val^29 Ala^8-32 Peptide C [SEQ. ID. NO. 196]; ^30 Asn^32 Tyr^8-32 Peptide C [SEQ. ID. NO. 197]; Ac-^9-32Peptide C [SEQ. ID. NO. 48]; Ac-^30 Asn^32 Tyr^9-32 Peptide C [SEQ. ID. NO. 198]; ^9-23 Peptide C^29-37 Peptide A [SEQ. ID. NO. 199]; Ac-^9-23 Peptide C^29-37 Peptide A; Adm-^9-23 Peptide C^29-37 Peptide A; Ac-^11 Arg^15 Leu^18 Arg^30 Asn^32 Tyr^9-32 Peptide C [SEQ. ID. NO. 200]; Ac-^11 Arg^18 Arg^30 Asn^32 Tyr^9-32 Peptide C [SEQ. ID. NO. 201]; Ac-^18 Arg^30 Asn^32 Tyr^9-32 Peptide C [SEQ. ID. NO. 202]. Infusions of ^8-37 Peptide B [SEQ. ID. NO. 26], ^8-32 Peptide C [SEQ. ID. NO. 47], and Ac-^11 Arg ^18 Arg^30 […] Tyr^9-32 Peptide C [SEQ. ID. NO.

Row | Substance | amylin agonist activity as measured by the soleus muscle assay [1] | amylin antagonist activity in the soleus muscle assay [1] | reversal of insulin resistance caused by administered amylin [2]
1 | VLGKLSQELHKLQTYPRTNTGSGTP-NH2 [^8-32 Peptide C] | negligible agonist activity | act as amylin antagonists | reverse the insulin resistance caused by administered amylin
2 | ^8-37 Peptide B (VTHRLAGLLSRSGGVVKNNFVPTNVGSKAF) [ID; NO; 26] | negligible agonist activity | act as amylin antagonists | reverse the insulin resistance caused by administered amylin
